US5068247A, “2-aminopentanoic acid compounds and their use as immunosuppressants” (priority 1989, dated 1991)

Tested on: allo-reactive cytotoxic T cells in spleen of EL4-immunized BALB/c mice
Test: suppression of allo-reactive cytotoxic T cells induced by immunization of mouse with allogenic cells
Type: in vivo
Experimental: Male 5- to 7-week-old BALB/c mice (H-2^d) were immunized with leukemia cell EL4 derived from C57BL/6 mice (H-2^b) (10^7 cells/mouse, intraperitoneal administration), and the test substance was administered intraperitoneally 5 times at the doses of 0.001 to 3 mg/kg/day or orally at the doses of 0.3 to 10 mg/kg/day from the day of immunization. Nine to ten days after immunization, the spleen was resected from the mice to prepare a single cell suspension and the suspension was used as effector cell suspension. The ^51 Cr-release assay was carried out in the same way as in Experiment Example 3, using EL4 cells as the target cells to measure the cytotoxic activity.
The activity of allo-reactive cytotoxic T cell is indicated by lytic unit (LU) per spleen. One lytic unit (LU) is defined as the number of effector cells required to cause 25% lysis of 5×10^3 target cells. At the same time, the body weight of mouse and number of spleen cells were also determined.

[1] = 0.001 mg/kg/day ip × 5, Table 9C
[2] = 0.001 mg/kg/day po × 5, Table 9D
[3] = 0.003 mg/kg/day ip × 5, Table 9C
[4] = 0.003 mg/kg/day po × 5, Table 9D
[5] = 0.003 mg/kg/day po × 10, Table 9E
[6] = 0.01 mg/kg/day ip × 5, Table 9C
[7] = 0.01 mg/kg/day po × 5, Table 9D
[8] = 0.01 mg/kg/day po × 10, Table 9E
[9] = 0.03 mg/kg/day ip × 5, Table 9C
[10] = 0.03 mg/kg/day po × 5, Table 9D
[11] = 0.03 mg/kg/day po × 10, Table 9E
[12] = 0.1 mg/kg/day po × 10, Table 9E

CCCCCCCCCCCCC/C=C/C[C@@H](O)[C@H](O)[C@@](N)(CO)C(=O)O [Example 5]
Body weight 9 days after immunization [1]: 23.6 ± 1.1 g
Cytotoxic T cell activity [1]: 589 ± 415 LU/spleen
Cytotoxic T cell activity, suppression [1]: 49.7%
Number of spleen cells [1]: 1.8 ± 0.2 × 10^8 cell
Body weight 10 days after immunization [2]: 24.5 ± 1.7 g
Cytotoxic T cell activity [2]: 1929 ± 630 LU/spleen
Cytotoxic T cell activity, suppression [2]: 0%
Number of spleen cells [2]: 1.5 ± 0.2 × 10^8
Body weight 9 days after immunization [3]: 22.8 ± 1.6 g
Cytotoxic T cell activity [3]: 473 ± 265 LU/spleen
Cytotoxic T cell activity, suppression [3]: 59.6%
Number of spleen cells [3]: 1.8 ± 0.2 × 10^8 cell
Body weight 10 days after immunization [4]: 24.6 ± 1.1 g
Cytotoxic T cell activity [4]: 1069 ± 400 LU/spleen
Cytotoxic T cell activity, suppression [4]: 30.2%
Number of spleen cells [4]: 1.6 ± 0.3 × 10^8
Body weight 10 days after immunization [5]: 25.0 ± 0.7 g
Cytotoxic T cell activity [5]: 1936 ± 840 LU/spleen
Cytotoxic T cell activity, suppression [5]: 30.5%
Number of spleen cells [5]: 1.3 ± 0.3 × 10^8
Body weight 9 days after immunization [6]: 24.4 ± 1.1 g
Cytotoxic T cell activity [6]: 443 ± 141 LU/spleen
Cytotoxic T cell activity, suppression [6]: 62.1%
Number of spleen cells [6]: 2.2 ± 0.3 × 10^8 cell
Body weight 10 days after immunization [7]: 25.8 ± 1.3 g
Cytotoxic T cell activity [7]: 709 ± 189 LU/spleen
Cytotoxic T cell activity, suppression [7]: 53.7%
Number of spleen cells [7]: 1.6 ± 0.3 × 10^8
Body weight 10 days after immunization [8]: 25.2 ± 1.3 g
Cytotoxic T cell activity [8]: 996 ± 279 LU/spleen
Cytotoxic T cell activity, suppression [8]: 64.2%
Number of spleen cells [8]: 1.4 ± 0.2 × 10^8
Body weight 9 days after immunization [9]: 24.0 ± 2.2 g
Cytotoxic T cell activity [9]: 352 ± 148 LU/spleen
Cytotoxic T cell activity, suppression [9]: 69.9%
Number of spleen cells [9]: 2.1 ± 0.5 × 10^8 cell
Body weight 10 days after immunization [10]: 25.0 ± 1.2 g
Cytotoxic T cell activity [10]: 684 ± 181 LU/spleen
Cytotoxic T cell activity, suppression [10]: 55.3%
Number of spleen cells [10]: 1.6 ± 0.3 × 10^8
Body weight 10 days after immunization [11]: 24.2 ± 1.3 g
Cytotoxic T cell activity [11]: 799 ± 304 LU/spleen
Cytotoxic T cell activity, suppression [11]: 71.3%
Number of spleen cells [11]: 1.5 ± 0.3 × 10^8
Body weight 9 days after immunization (0.1 mg/kg/day ip × 5, Table 9C): 25.4 ± 1.9 g
Cytotoxic T cell activity (0.1 mg/kg/day ip × 5, Table 9C): 158 ± 86 LU/spleen
Cytotoxic T cell activity, suppression (0.1 mg/kg/day ip × 5, Table 9C): 86.5%
Number of spleen cells (0.1 mg/kg/day ip × 5, Table 9C): 1.9 ± 0.3 × 10^8 cell
Body weight 10 days after immunization (0.1 mg/kg/day po × 5, Table 9D): 25.2 ± 0.4 g
Cytotoxic T cell activity (0.1 mg/kg/day po × 5, Table 9D): 638 ± 155 LU/spleen
Cytotoxic T cell activity, suppression (0.1 mg/kg/day po × 5, Table 9D): 58.3%
Number of spleen cells (0.1 mg/kg/day po × 5, Table 9D): 1.7 ± 0.4 × 10^8
Body weight 10 days after immunization [12]: 25.0 ± 0.7 g
Cytotoxic T cell activity [12]: 731 ± 318 LU/spleen
Cytotoxic T cell activity, suppression [12]: 73.8%
Number of spleen cells [12]: 1.4 ± 0.4 × 10^8
Body weight 9 days after immunization (0.3 mg/kg/day ip × 5, Table 9C): 26.0 ± 1.6 g
Cytotoxic T cell activity (0.3 mg/kg/day ip × 5, Table 9C): < 50 LU/spleen
Cytotoxic T cell activity, suppression (0.3 mg/kg/day ip × 5, Table 9C): > 95%
Number of spleen cells (0.3 mg/kg/day ip × 5, Table 9C): 1.9 ± 0.2 × 10^8 cell
Body weight 10 days after immunization (0.3 mg/kg/day po × 5, Table 9D): 25.4 ± 0.5 g
